Laboratory results as given in US7902191B2, “Histamine H3 receptor antagonists, preparation and therapeutic uses” (Eli Lilly and Company, priority 2004, dated 2011).

How the values were obtained:
[1] = molecular target: T1, H3R membranes (H3R8-expressing HEK293 cell line) (Homo sapiens, UniProt Q9Y5N1); assay: [35S] GTP γ[S] binding assay, antagonist activity in the presence of agonist R(−)alpha methylhistamine; type: biochemical; details: results given below the [35S]GTPγS assay
T1 construct: expressed in transfected cells
Method: Membranes isolated as described in (Preparation of Histamine Receptor Subtype Membranes) were used in a [35S]GTPχS functional assay. Binding of [35S]GTPχS to membranes indicates agonist activity. Compounds of the invention of Formula I or II or III were tested for their ability to inhibit binding in the presence of agonists. Alternately, the same transfected cell lines were used for a cAMP assay wherein H3R agonists inhibited forskolin-activated synthesis of cAMP. Compounds of Formula I or II or III were tested for their ability to permit forskolin-stimulated cAMP synthesis in the presence of agonist.
cDNA for the human histamine 3 receptor was cloned and expressed as described in (A. Preparation H1R membranes), above. Transfected cells were selected using G418 ([…]), grown, and tested for histamine binding by the SPA described above. For total binding, cells were assayed in a SPA reaction described above containing 50 mM Tris-HCL (assay buffer), pH 7.6, 1 mg wheat germ agglutinin SPA beads (Amersham Pharmacia Biotech, #RPNQ0001), and 1 nM (3H)-n-alpha-methylhistamine (NEN, NET1027) (total volume per well=200 μl). Thioperimide was added to determine non-specific binding. […]
Antagonist activity of selected compounds was tested for inhibition of [35S] […] Plates were counted in Wallac Trilux 1450 Microbeta scintillation counter for 1 minute. […]

[2] = molecular target: T2, H4R (human GPRv53 receptor) (Homo sapiens, UniProt Q9H3N8); assay: competitive binding assay, GPRv53 (H4R), (3H) Histamine
T2 construct: expressed in transfected cells; host or cells: HEK293 GPRv53 50 cells (whole-cell homogenate/lysate)
Method: cDNA for the human GPRv53 receptor was cloned and expressed as described in (A. Preparation H1R membranes), above. Transfected cells were selected, tested for histamine binding, and selected. HEK293 GPRv53 50 cells were grown to confluency in DMEM/F12 (Gibco) supplemented with 5% FBS and 500 ug/ml G418 and washed with Delbecco's PBS (Gibco) and harvested by scraping. Whole cells were homogenized with a Polytron tissuemizer in binding buffer, 50 mM Tris pH 7.5. Cell lysates, 50 ug, were incubated in 96 well dishes with 3 nM (3H) Histamine and compounds in binding buffer for 2 hours at room temperature. Lysates were filtered through glass fiber filters (Perkin Elmer) with a Tomtec cell harvester. Filters were counted with melt-on scintillator sheets (Perkin Elmer) in a Wallac Trilux 1450 Microbeta Scintillation counter for 5 minutes.
(§1) To investigate the selectivity of the antagonists for the histamine receptors, a competitive binding assay described above was performed. […] Until the present invention, most known H3R antagonists also bound H4R.

[3] = molecular target: T3, H3R (human histamine 3 receptor) (Homo sapiens, UniProt Q9Y5N1); assay: competitive inhibition SPA binding assay, H3R, (3H)-n-alpha-methylhistamine; details: selectivity panel
T3 construct: expressed in transfected cells
Source text: The inventive compounds can readily be evaluated by using a competitive inhibition Scintillation Proximity Assay (SPA) based on a H3R binding assay using [3H] α methylhistamine as ligand. Stable cell lines, including but not limited to HEK can be transfected with cDNA coding for H3R to prepare membranes used for the binding assay. The technique is illustrated below (Preparation of Histamine Receptor Subtype Membranes) for the histamine receptor subtypes.
cDNA for the human histamine 3 receptor was cloned and expressed as described in (A. Preparation H1R membranes), above. Transfected cells were selected using G418 ([…]), grown, and tested for histamine binding by the SPA described above. For total binding, cells were assayed in a SPA reaction described above containing 50 mM Tris-HCL (assay buffer), pH 7.6, 1 mg wheat germ agglutinin SPA beads (Amersham Pharmacia Biotech, #RPNQ0001), and 1 nM (3H)-n-alpha-methylhistamine (NEN, NET1027) (total volume per well=200 μl). Thioperimide was added to determine non-specific binding. Several clones were selected as positive for binding, and a single clone (H3R8) was used to prepare membranes for binding studies described above. Five micrograms of protein was used per well in the SPA receptor-binding assay.
To investigate the selectivity of the antagonists for the histamine receptors, a competitive binding assay described above was performed. […]

[4] = molecular target: T4, H2 (human histamine 2 receptor) (Homo sapiens, UniProt P25021); assay: competitive SPA binding assay, H2R, 3H-tiotidine; details: selectivity panel
T4 construct: expressed in transfected cells
Method: cDNA for the human histamine 2 receptor was cloned, expressed and transfected into HEK 293 cells as described above. Histamine binding to cells was assayed by SPA described above. For total binding, cells were assayed in a SPA reaction containing 50 mM Tris-HCl (assay buffer), pH 7.6, 1 mg wheat germ agglutinin SPA beads (Amersham Pharmacia Biotech, #RPNQ0001), and 6.2 nM ^3H-tiotidine (Net-688, NEN) (total volume per well=200 μl). Cimetidine (10 μM, Sigma #C4522) was added to appropriate wells to determine non-specific binding.
Several clones were selected as positive for binding, and a single clone (H2R10) was used to prepare membranes for binding studies. Five micrograms of protein was used per well in the SPA receptor-binding assay.
as §1

[5] = molecular target: T5, H1R (human histamine 1 receptor) (Homo sapiens, UniProt P35367); assay: competitive SPA binding assay, H1R, 3H-pyrilamine; details: selectivity panel
T5 construct: expressed in transfected cells
Method: cDNA for the human histamine 1 receptor (H1R) was cloned into a mammalian expression vector containing the CMV promoter (pcDNA3.1(+), Invitogen) and transfected into HEK293 cells using the FuGENE Tranfection Reagent (Roche Diagnostics Corporation). Transfected cells were selected using G418 (500 μ/ml). Colonies that survived selection were grown and tested for histamine binding to cells grown in 96-well dishes using a scintillation proximity assay (SPA) based radioligand binding assay. Briefly, cells, representing individual selected clones, were grown as confluent monolayers in 96-well dishes (Costar Clear Bottom Plates, #3632) by seeding wells with 25,000 cells and growing for 48 hours (37° C., 5% CO2). Growth media was removed and wells were rinsed two times with PBS (minus Ca^2+ or Mg^2+). For total binding, cells were assayed in a SPA reaction containing 50 mM Tris-HCL (assay buffer), pH 7.6, 1 mg wheat germ agglutinin SPA beads (Amersham Pharmacia Biotech, #RPNQ0001), and 0.8 nM ^3H-pyrilamine (Net-594, NEN) (total volume per well ˜200 μl). Astemizole (10 μM, Sigma #A6424) was added to appropriate wells to determine non-specific binding. Plates were covered with FasCal and incubated at room temperature for 120 minutes. […] Plates were counted in a Wallac Trilux 1450 Microbeta scintillation counter. […]

T1 sequence (Q9Y5N1 whole entry): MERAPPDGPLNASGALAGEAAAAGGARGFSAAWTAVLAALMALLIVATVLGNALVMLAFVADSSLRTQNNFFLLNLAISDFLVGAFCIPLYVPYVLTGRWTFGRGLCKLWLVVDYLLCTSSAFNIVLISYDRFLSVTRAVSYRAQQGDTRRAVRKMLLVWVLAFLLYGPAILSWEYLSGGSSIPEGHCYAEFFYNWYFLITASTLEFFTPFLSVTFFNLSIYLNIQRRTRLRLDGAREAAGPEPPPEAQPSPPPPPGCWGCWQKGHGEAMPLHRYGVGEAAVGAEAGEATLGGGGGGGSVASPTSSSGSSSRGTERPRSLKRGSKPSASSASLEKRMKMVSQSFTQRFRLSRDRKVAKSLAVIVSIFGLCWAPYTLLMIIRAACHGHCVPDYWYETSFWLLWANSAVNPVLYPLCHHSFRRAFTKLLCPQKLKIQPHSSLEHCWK
T3 sequence (Q9Y5N1 whole entry): as above
T4 sequence (P25021 whole entry): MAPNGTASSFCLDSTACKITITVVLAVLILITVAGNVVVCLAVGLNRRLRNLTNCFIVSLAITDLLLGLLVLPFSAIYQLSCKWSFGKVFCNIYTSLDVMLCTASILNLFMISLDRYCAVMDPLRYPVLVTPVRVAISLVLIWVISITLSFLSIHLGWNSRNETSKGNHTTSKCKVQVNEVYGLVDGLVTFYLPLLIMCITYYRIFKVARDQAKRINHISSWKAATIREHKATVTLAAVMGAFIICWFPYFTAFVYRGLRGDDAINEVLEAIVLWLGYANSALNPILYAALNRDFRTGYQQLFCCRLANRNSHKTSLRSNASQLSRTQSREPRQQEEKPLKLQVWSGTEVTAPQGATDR
T5 sequence (P35367 whole entry): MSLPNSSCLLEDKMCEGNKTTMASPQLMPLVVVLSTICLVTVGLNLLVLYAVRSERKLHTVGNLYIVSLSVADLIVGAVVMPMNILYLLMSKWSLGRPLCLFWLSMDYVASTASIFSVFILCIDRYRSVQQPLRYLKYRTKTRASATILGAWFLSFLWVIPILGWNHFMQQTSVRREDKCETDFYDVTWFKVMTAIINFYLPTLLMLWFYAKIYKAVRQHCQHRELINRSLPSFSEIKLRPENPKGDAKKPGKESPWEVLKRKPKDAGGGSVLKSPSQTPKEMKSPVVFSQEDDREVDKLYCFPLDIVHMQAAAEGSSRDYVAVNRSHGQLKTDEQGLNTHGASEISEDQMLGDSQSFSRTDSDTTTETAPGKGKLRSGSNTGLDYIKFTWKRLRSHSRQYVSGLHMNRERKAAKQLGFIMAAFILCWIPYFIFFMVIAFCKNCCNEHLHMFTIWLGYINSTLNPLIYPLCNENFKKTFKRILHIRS

Row | Ki [1] [nM] | SMILES | Ki ([2]; selectivity panel) [nM] | inhibition of binding to H4R compared to H3R ([2]; statement in words) | Ki [3] [nM] | Ki [4] [nM] | Ki [5] [nM]
1 | 7.8 | O=C(c1ccc2c(c1)CCC(N1CCOCC1)C2)N1CCC[C@H]1CN1CCCC1 (mixture of isomers) [Example 6, (6-Morpholin-4-yl-5,6,7,8-tetrahydro-naphthalen-2-yl)-(2-pyrrolidin-1-ylmethyl-pyrrolidin-1-yl)-methanone] |  |  |  |  | 
2 |  | O=C(c1ccc2c(c1)CCCC2)N1CCC[C@H]1CN1CCCC1 [Example 15, (S)-(2-Pyrrolidin-1-ylmethyl-pyrrolidin-1-yl)-(5,6,7,8-tetrahydro-naphthalen-2-yl)-methanone] | ≥ 20000 | did not inhibit binding H4R | 1.8 | ≥ 17800 | ≥ 20000
3 | 1.5 | O=C(c1ccc2c(c1)CCC(N1CCCC1)C2)N1CCC[C@H]1CN1CCCC1 (mixture of isomers) [Example 3, (2-Pyrrolidin-1-ylmethyl-pyrrolidin-1-yl)-(6-pyrrolidin-1-yl-5,6,7,8-tetrahydro-naphthalen-2-yl)-methanone] |  |  |  |  | 
